Source: paper PMC10512030, “Prolidase-proline oxidase axis is engaged in apoptosis induction by birch buds flavonol santin in endometrial adenocarcinoma cell line” (Frontiers in Molecular Biosciences, 2023)
Where two headings read alike, the source gives them in different places.

Legend:
Type in all cases: cell-based, human
[1] = system: cervical adenocarcinoma HeLa cells; assay: Cell viability MTT assay, HeLa; settings: Homo sapiens, HeLa, HeLa
[2] = system: endometrial adenocarcinoma Ishikawa cells; assay: Cell viability MTT assay, Ishikawa; settings: Homo sapiens
[3] = system: normal fibroblasts (dermal fibroblasts CCD25Sk); assay: Cell viability MTT assay, fibroblasts; settings: Homo sapiens, Fibroblast, Fibroblasts, read-out: IC50 values ± SD in MTT assay
[4] = system: endometrial adenocarcinoma Ishikawa cells; assay: Cell viability neutral red uptake assay, Ishikawa; settings: Homo sapiens
[5] = system: normal fibroblasts (dermal fibroblasts CCD25Sk); assay: Cell viability neutral red uptake assay, fibroblasts; settings: Homo sapiens, Fibroblast, read-out: IC50 values ± SD in neutral red uptake assay
[6] = system: breast epithelial cells MCF 10A; assay: Cell viability MTT assay, MCF 10A; settings: Homo sapiens, 48 h
[7] = system: Ishikawa cells; assay: Colony formation assay, Ishikawa; settings: then fresh medium 7 days
[8] = system: HeLa cells; assay: Apoptosis assay, annexin V-FITC / propidium iodide flow cytometry, HeLa; settings: 48 h
[9] = system: Ishikawa cells; assay: Apoptosis assay, annexin V-FITC / propidium iodide flow cytometry, Ishikawa; settings: 48 h
[10] = system: prolidase; assay: Prolidase activity in homogenates of treated cells; settings: 48 h
Procedure: The activity of prolidase in cell homogenates was determined according to the method of ([Myara et al., 1982]). Briefly, prolidase was activated by overnight incubation of homogenates with 1 mM MnCl2 at 37°C. Then, the substrate (Gly-Pro, 100 mM) was added to each sample, followed by incubation at 37°C for 1 h. The reaction was stopped with […] trichloracetic acid and samples were then centrifuged at 15,000 × g for 10 min. After adding acetic acid and Chinard’s reagent to collected supernatant, the mixtures were incubated at 90°C for 10 min. Samples were allowed to come to room temperature and then absorbance was measured at 515 nm. Enzyme activity was reported as nanomoles of proline released from the synthetic substrate during 1 min/mg of total proteins of cell homogenate.

[11] = system: p53; assay: Western immunoblot of p53 in treated cells; settings: 48 h; for expression of p53 (Western blot): Ishikawa cells
Procedure: Adherent and floating cells were harvested and sonicated. Obtained homogenates were supplemented with 1% protease and phosphatase inhibitor cocktail (#78440, Thermo Fisher Scientific). The Lowry assay was performed to quantify protein content in the homogenates. Proteins (20–40 μg) were resolved on 7.5%, 10%, or 12% SDS-PAGE gels using the Mini-Protean Tetra system (Bio-Rad). Proteins were transferred to nitrocellulose membranes (Bio-Rad) using the Mini Trans-Blot Cell wet blotting system (Bio-Rad). Membranes were blocked with 5% skim milk for 1 h at room temperature and probed overnight at 4°C with primary antibodies. The following antibodies purchased from Cell Signaling Technology were used: anti-caspase-9 antibody (#9508, 1:1,000), anti-caspase-8 antibody (#9746, 1:1,000), anti-caspase-3 antibody (#9662, 1:1,000), anti-caspase-7 antibody (#12827, 1:1,000), anti-PARP antibody (#9542, 1:1,000) and anti-cleaved PARP antibody (#5625, 1:1,000); anti-proline oxidase antibody (sc-376401, 1:1,000) and anti-p53 antibody (sc-126, 1:500) were obtained from Santa Cruz Biotechnology; anti-prolidase antibody (STJ27369, 1:1,000) was purchased from St John’s Laboratory and anti-actin antibody (#A2066, 1:2,000) was obtained from Sigma-Aldrich. After extensive washes, a secondary antibody solution in 5% skim milk (anti-mouse IgG-HRP, Sigma-Aldrich, #A9044, 1:5,000 or anti-rabbit IgG-HRP, Sigma-Aldrich, #A9169, 1:5000) was added for 1 h at room temperature. Membranes were incubated with ECL-HRP substrate (GE Healthcare), and the signal was detected using the BioSpectrum Imaging System (Ultra-Violet Products, Ltd.). Intensity of the bands was quantified by densitometric analysis using VisionWorks LS software (Ultra-Violet Products, Ltd.).

[12] = system: proline oxidase; assay: Western immunoblot of proline oxidase in treated cells; settings: 48 h
Procedure: (§1) Adherent and floating cells were harvested and sonicated. Obtained homogenates were supplemented with 1% protease and phosphatase inhibitor cocktail (#78440, Thermo Fisher Scientific). The Lowry assay was performed to quantify protein content in the homogenates. Proteins (20–40 μg) were resolved on 7.5%, 10%, or 12% SDS-PAGE gels using the Mini-Protean Tetra system (Bio-Rad). Proteins were transferred to nitrocellulose membranes (Bio-Rad) using the Mini Trans-Blot Cell wet blotting system (Bio-Rad). Membranes were blocked with 5% skim milk for 1 h at room temperature and probed overnight at 4°C with primary antibodies. […] Membranes were incubated with ECL-HRP substrate (GE Healthcare), and the signal was detected using the BioSpectrum Imaging System (Ultra-Violet Products, Ltd.). Intensity of the bands was quantified by densitometric analysis using VisionWorks LS software (Ultra-Violet Products, Ltd.).

[13] = system: prolidase; assay: Western immunoblot of prolidase in treated cells; settings: santin, 48 h
Procedure: as §1

[14] = system: intracellular ROS; assay: Analysis of intracellular ROS with DCFDA; settings: santin 1 h
Procedure: The oxidation-sensitive dye, 2′, 7′-dichlorofluorescein diacetate (DCFDA, D6883, Sigma-Aldrich), was used to determine the formation of intracellular ROS. Assay is based on the diffusion of DCFDA into the cell, where it is deacetylated by cellular esterases to a non-fluorescent compound, which is later oxidised by ROS into highly fluorescent 2′, 7′-dichlorofluorescein. […] Cells were treated with santin at concentrations of 6.2, 12.5, and 25 μM for 1, 24, or 48 h. Culture medium was discarded and the cells were washed with PBS and incubated with 10 μM DCFDA at 37°C for 30 min. Cell images were taken with fluorescence microscope.

[15] = 48 h, negative control siRNA transfected cells, 48 h, read-out: IC50, MTT assay
[16] = 48 h, non-transfected cells, 48 h, read-out: IC50, MTT assay
[17] = 48 h, p53-silenced cells, 48 h, read-out: IC50, MTT assay
[18] = 48 h, prolidase-silenced cells, 48 h, read-out: IC50, MTT assay
[19] = 48 h, proline oxidase-silenced cells, 48 h, read-out: IC50, MTT assay

## COc1ccc(-c2oc3cc(O)c(OC)c(O)c3c(=O)c2OC)cc1 [santin, 5,7-dihydroxy-3,6,4′-trimethoxyflavone]
[1]; 24 h, 24 h, read-out: IC50 values ± SD in MTT assay
  IC50: 17.8 ± 2 µM
[1]; 48 h, 48 h, read-out: IC50 values ± SD in MTT assay
  IC50: 7 ± 0.8 µM
[1]; [15]
  IC50: 7.3 ± 1.1 µM
[1]; [16]
  IC50: 7.2 ± 0.9 µM
[1]; [17]
  IC50: 10.9 ± 1.9 µM
[1]; [18]
  IC50: 7.8 ± 1 µM
[1]; [19]
  IC50: 11.2 ± 1.3 µM
[2]; 24 h, read-out: IC50 values ± SD in MTT assay
  IC50: 12.9 ± 1.1 µM
[2]; [15]
  IC50: 5.9 ± 0.9 µM
[2]; [16]
  IC50: 5.7 ± 0.8 µM
[2]; [17]
  IC50: 5.9 ± 1.1 µM
[2]; [18]
  IC50: 11.1 ± 1.9 µM
[2]; [19]
  IC50: 14 ± 2 µM
[2]; 48 h, read-out: IC50 values ± SD in MTT assay
  IC50: 5.1 ± 0.9 µM
[3]; 24 h
  IC50: > 50 µM
[3]; 48 h
  IC50: > 50 µM
[4]; 24 h, NAC treated (2 mM N-acetyl-L-cysteine preincubation 2 h), read-out: IC50, neutral red uptake assay
  IC50: 25.6 ± 2.1 µM
[4]; 24 h, read-out: IC50 values ± SD in neutral red uptake assay
  IC50: 6.2 ± 1 µM
[4]; 24 h, without NAC, read-out: IC50, neutral red uptake assay
  IC50: 12.7 ± 1.3 µM
[4]; 48 h, NAC treated (2 mM N-acetyl-L-cysteine preincubation 2 h), read-out: IC50, neutral red uptake assay
  IC50: 11 ± 1.4 µM
[4]; 48 h, read-out: IC50 values ± SD in neutral red uptake assay
  IC50: 5.9 ± 1.1 µM
[4]; 48 h, without NAC, read-out: IC50, neutral red uptake assay
  IC50: 4.8 ± 1 µM
[5]; 24 h
  IC50: > 50 µM
[5]; 48 h
  IC50: > 50 µM
[6]
  IC50: 12.1 ± 1.7 µM
[7]; santin 6.2 μM for 48 h
  decrease of number of colonies: 53%
[7]; santin 12.5 μM for 48 h
  decrease of number of colonies: 84%
[8]; santin 6.2 μM
  % early apoptotic cells (annexin V/PI plot, lower right quadrant): 27% ± 4%
  % late apoptotic cells (annexin V/PI plot, upper right quadrant): 30% ± 3%
[8]; santin 12.5 μM
  % early apoptotic cells (annexin V/PI plot, lower right quadrant): 39% ± 5%
  % late apoptotic cells (annexin V/PI plot, upper right quadrant): 38% ± 4%
[9]; santin 6.2 μM
  % early apoptotic cells (annexin V/PI plot, lower right quadrant): 35% ± 4%
  % late apoptotic cells (annexin V/PI plot, upper right quadrant): 15% ± 2%
[9]; santin 12.5 μM
  % early apoptotic cells (annexin V/PI plot, lower right quadrant): 55% ± 5%
  % late apoptotic cells (annexin V/PI plot, upper right quadrant): 21% ± 3%
[10]; HeLa cells, 100 μM santin
  decrease of prolidase activity (minimum value): 71%
[10]; Ishikawa cells, 50 μM santin
  increase of prolidase activity (maximum): 160%
[11]; HeLa cells, santin 6.2–25 μM
  p53 level (Western blot): significantly upregulated
[11]; santin 6.2–12.5 μM
  expression of p53 (Western blot): slightly increased
[11]; santin 25–100 μM
  expression of p53 (Western blot): gradually decreased
[12]; HeLa cells, santin 6.2 and 12.5 μM
  proline oxidase expression (Western blot): increased proline oxidase expression
[12]; Ishikawa cells, santin
  proline oxidase expression (Western blot): downregulated
[13]; HeLa cells
  prolidase expression (Western blot): downregulated prolidase expression
[13]; Ishikawa cells
  prolidase expression (Western blot): increased its level
[14]; HeLa cells
  ROS generation (DCFDA fluorescence): significant increase
[14]; Ishikawa cells
  ROS generation (DCFDA fluorescence): massive ROS generation
